Test results reported in publication PMC4108065, “Inflammation and pancreatic cancer: molecular and functional interactions between S100A8, S100A9, NT-S100A8 and TGFβ1” (Cell Communication and Signaling : CCS, 2014).

Columns and labels:
Assay type in all cases: cell-based, human
[1] = tested on: Akt phosphorylation sites Thr308 and Ser473; assay: Akt signaling, western blot in PDAC cell lines; conditions: BxPC3, Capan1, MiaPaCa2, Panc1, 10 min; for Akt Ser473 phosphorylation: 10 nM S100A8, S100A9, S100A8/A9, 50 nM NT-S100A8; for Akt Thr308 phosphorylation: 10 nM S100A8, S100A9, S100A8/A9, 50 nM NT-S100A8, 0.02 ng/ml TGFβ1
Method: (§1) Five million cells were seeded in Petri dishes (ø 10 cm) and cultured for 24 hours in their respective complete media prior to starting the experiments. Cells remained non-stimulated (negative control) or were stimulated with 50 mU insulin (positive control) (Insuman Rapid, Sanofi-Aventis, Deutschland, GmbH) for 10 min; in parallel, experimental cells were stimulated with 50 nM NT-S100A8, 0,02 ng/ml TGFβ1 (ProSpec-Tany TechnoGene), 10 nM S100A8 and 10 nM S100A9 alone or combined for 10 min. Following stimulations, Petri dishes were immediately transferred into an ice bath, and the cells were washed twice with cold PBS, re-suspended in 100 μl of cold lysis buffer [20 mM Tris–HCl, pH 7.5, 150 mM NaCl, 1 mM EDTA, 1% Triton-X 100, 50 mM NaF, 10 mM Na4P2O7,1 mM Na3VO4, and 10% protease inhibitor cocktail (Sigma Aldrich SRL, Milano, Italy)]. Lysates were centrifuged for 10 min at 14,000 rpm at 4°C and, in the supernatants, total proteins were measured using the Bio-Rad protein assay (Bio-Rad Laboratories, Milano, Italy). Each experiment was performed at least in triplicate.
(§2) For each sample, 40 μg proteins were electrophoresed through 4–12% NuPAGE®NovexBis-Tris SDS–PAGE Gel or 3-8% NuPAGE®NovexTris-Acetate SDS–PAGE Gel (Invitrogen S.R.L., Life Technologies, Monza, Italy) and electrophoretically transferred to Nitrocellulose Membrane (iBlot® Transfer Stack, Invitrogen S.R.L.) by means of the iBlotTMDry Blotting System (Invitrogen S.R.L.). Following incubation for 1 hour in a blocking buffer [5% low fat powder milk re-suspended in PBS-T (PBS with 0.1% Tween-20)], membranes were incubated overnight at 4°C with the primary antibodies [antiphospho IkB-α (Ser^32) (Santa Cruz Biotechnology, Inc., Santa Cruz, CA, USA); anti-phospho-Akt (Ser^473), anti-phospho-Akt (Thr^308), anti-Akt and anti-phospho-S6 Ribosomal Protein (Ser^235/236), anti-cleaved Caspase-3, anti-phospho-Stat3 Tyr^705, anti-β-actin, anti-phospho mTOR (Ser^2448, Ser^2481) (Cell Signaling Technology, Danvers, MA, USA); anti-RAGE (R&D Systems, Minneapolis, MN, USA) ] diluted 1:5000 (β-actin), 1:2000 (mTOR, cleaved Caspase-3, Stat3) or 1:3000 (all the others) in the blocking buffer. The blots, washed three times in PBS-T for 15 min, were incubated with […] anti-rabbit (Cell Signaling Technology) or anti-goat (Sigma Aldrich) secondary antibodies and then washed three times in PBS-T for 15 min and developed with the ECL Advance Western Blot Detection Kit (GE Healthcare Technologies, Milan, Italy).

[2] = tested on: mTOR Ser2481, Ser2448 and S6 Ribosomal Protein phosphorylation; assay: mTOR signaling, western blot in PDAC cell lines; conditions: BxPC3, Capan1, MiaPaCa2, Panc1, 10 min, 10 nM S100A8, S100A9, S100A8/A9, 50 nM NT-S100A8, 0.02 ng/ml TGFβ1
Method: as §1, §2

[3] = tested on: MiaPaCa2 [Ca2+]i; assay: Intracellular calcium, fluo-4 epifluorescence, MiaPaCa2; conditions: for [Ca2+]i variation per minute per cell: MiaPaCa2, 200 to 480 second interval, vs control cells, One-Way ANOVA, Bonferroni; for effect on the [Ca2+]i decrement induced by TGFβ1: MiaPaCa2, combined with 0.02 ng/ml TGFβ1, 200 to 480 second interval
Method: BxPC3 and MiaPaCa2 cells, seeded (80 × 10^3 cells) on coverslips that had been inserted within each well of six well culture plates, were kept in their respective complete media for 24 hours. Coverslips were then incubated for 10 min at 37°C with 3 μM fluo-4 AM (Invitrogen S.R.L.) in an imaging buffer containing 137 mM NaCl, 5 mM KCl, 1.2 mM MgCl2, 0.44 mM KH2PO4, 4.2 mM NaHCO3, 5 mM glucose, and 20 mM HEPES pH 7.4. The cells were carefully washed with the imaging buffer after its removal. Calcium oscillations were then analyzed by means of an inverted epifluorescence microscope equipped with a top stage incubator (Tokai Hit INU-F1, Tokai Hit, Shizuoka-Ken, Japan) in order to keep cells in the optimal culturing environment. As an illumination source, we used a mercury arc discharge lamp and selected excitation and emission wavelengths with an FITC filter cube (EX 465–495 DM505 EM 515–555 nm). Use was made of an 60X1.45NA objective (Nikon Instruments S.P.A., Firenze, Italy) and, in order to minimize phototoxicity and photobleaching, a back-thinned electron multiplied CCD camera C9100-13 Imagem (Hamamatsu Photonics Italia S.R.L., Milano, Italy). After the first minute, required to achieve optimal culture conditions, intracellular fluorescence was continuously monitored (3 frames/sec) for 12 min. In all experiments, […], the cells were maintained in imaging buffer for the first 2 minutes, after which they were stimulated with 10 nM S100A8, 10 nM S100A9 and 50 nM NT-S100A8, alone or in combination with 0.02 ng/ml TGFβ1. For all stimuli, additions were made directly to the microscope chamber without interrupting the recording. The fluorescence signal was quantified by measuring the mean pixel value of a manually selected cellular area for each frame of the image stack using the HCimage system (Hamamatsu Photonics Italia S.R.L.). For all the experimental conditions, at least 3 independents sets of experiments were performed.

“NT-S100A8: 14 N-terminal aminoacid peptide of S100A8, isolated from PDAC tissues (MLTELEKALNSIID; UniProt P05109 1-14, looked up, fragment)” was tested, and the “Akt Ser473 phosphorylation” value [1] was “augmented in the same cell lines”, the “Akt Thr308 phosphorylation” value [1] was “reduced in Capan1 and MiaPaCa2” and the “mTOR Ser2448 phosphorylation” value [2] was “inducing Ser^2481 and Ser^2448 phosphorylation in all cell lines”. For the same substance, the “mTOR Ser2481 phosphorylation” value [2] was “inducing Ser^2481 and Ser^2448 phosphorylation in all cell lines” and the “[Ca2+]i variation per minute per cell” value [3] was “significant decrement of [Ca^2+]i”.

In the case of “S100A8: inflammatory calcium binding protein S100A8 (ProSpec-Tany TechnoGene)”, the “Akt Ser473 phosphorylation” value [1] is reported as “reduced Akt Ser^473 phosphorylation in Capan1, MiaPaCa2 and Panc1 cells”, the “Akt Thr308 phosphorylation” value [1] is reported as “induced in BxPC3, and reduced in the other cell lines” and the “mTOR Ser2448 phosphorylation” value [2] is reported as “induced mTOR Ser^2448 phosphorylation in all cell lines”. For the same substance, the “mTOR Ser2481 phosphorylation” value [2] was “Ser^2481 in BxPC3 and Capan1”, the “[Ca2+]i variation per minute per cell” value [3] was “significant decrement of [Ca^2+]i” and the “effect on the [Ca2+]i decrement induced by TGFβ1” value [3] was “partly counteracted”.

With “S100A9: inflammatory calcium binding protein S100A9, S100A8 binding partner” the “Akt Ser473 phosphorylation” value [1] was “reduced Akt Ser^473 phosphorylation in Capan1, MiaPaCa2 and Panc1 cells”, the “Akt Thr308 phosphorylation” value [1] was “induced in BxPC3, and reduced in the other cell lines” and the “mTOR Ser2448 phosphorylation” value [2] was “induced mTOR Ser^2448 phosphorylation in all cell lines”. The “mTOR Ser2481 phosphorylation” value [2] was “Ser^2481 in BxPC3 and Capan1” and the “effect on the [Ca2+]i decrement induced by TGFβ1” value [3] was “completely reverted”.

With “TGFβ1: transforming growth factor beta 1 (ProSpec-Tany TechnoGene)” the “Akt Thr308 phosphorylation” value [1] was “inhibited Akt Thr^308, but not Akt Ser^473 phosphorylation in Smad4 expressing cells”, the “mTOR Ser2448 phosphorylation” value [2] was “inducing Ser^2481 and Ser^2448 phosphorylation in all cell lines” and the “mTOR Ser2481 phosphorylation” value [2] was “inducing Ser^2481 and Ser^2448 phosphorylation in all cell lines”. For the same substance, the “[Ca2+]i variation per minute per cell” value [3] was “significant decrement of [Ca^2+]i”.
